Here are results for five compounds from patent US7659310B2, “Methods of enhancing solubility of agents” (Formatech, Inc., priority 2004, dated 2010).

Structures are written as SMILES. Converted amounts (≈) assume the structure as drawn. “And” between values parts separate entries of the source, which are not always exact repeats. Equal entries are not always repeated. Where two headings read alike, the source gives them in different places.

Series [1] in a line: Solubilization of compounds in fatty acid / fatty acid salt (soluble, formulation clear). The note with it: for solubility: aqueous with cosolvent or surfactant or cyclodextrin. The protocol:
(§1) Ethanolamine (8 μL) was subsequently added and mixed using a VORTEX®. After mixing, the sample was dispersed in 466 μL of water for injection.
(§2) Ethanolamine (62 μL) was subsequently added and mixed using a VORTEX®. After mixing, the sample was dispersed in 784 μL of water for injection.
(§3) Digoxin (1 mg) was added to 28 μL of oleic acid and mixed using VORTEX. Ethanolamine (6 μL) was subsequently added and mixed using a VORTEX®. After mixing, the sample was dispersed in 966 μL of water for injection.
(§4) Digoxin (1 mg) was added to 1 mL of 0.25 M sodium oleate and mixed using a VORTEX®.
(§5) N-acetylsalicylic acid (18 mg) was added to 31 μL of oleic acid and mixed using a VORTEX®. Ethanolamine (6 μL) was subsequently added and mixed using a VORTEX®. After mixing, the sample was dispersed in 963 μL of water for injection.
(§6) N-acetylsalicylic acid (25 mg) was added to 1 mL of 0.25 M sodium oleate and mixed using a VORTEX®.
(§7) Paclitaxel (18 mg) was added to 31 μL of oleic acid and mixed using a VORTEX®. Ethanolamine (6 μL) was subsequently added and mixed using a VORTEX®. After mixing, the sample was dispersed in 963 μL of water for injection.
(§8) Paclitaxel (5.6 mg) was added to 1 mL of 0.1 M sodium oleate and mixed using a VORTEX®.
(§9) Paclitaxel (2 mg) was added to 1 mL of 1 M sodium caprylate and mixed by a VORTEX®.
Paclitaxel (7.2 mg) was added to 1 mL of 1 M sodium linoleate and mixed using a VORTEX®.
For example, β-Lapachone was dissolved (25 mg/mL) in ethanol:oleic acid (EtOH:OA) at volume to volume ratios of 70%:30%, 75%:25%, or 80%:20% EtOH:OA.
In another example, β-Lapachone was dissolved (50 mg/mL) in dimethylsulfoxide:oleic acid (DMSO:OA) at volume to volume ratios of 60%:40, 70%:30% DMSO:OA or in DMSO:EtOH:OA (30%:30%:40% v/v).
For example, Propofol (1% v/v or 10 mg/mL) was dissolved in 100 mM sodium oleate in 5% (w/v) dextrose in water for injection. The resulting solution containing 1% Propofol was lyophilized.
For example, Paclitaxel (5 mg/mL) was dissolved in 100 mM sodium oleate in 100% ethanol. Ethanol was completely evaporated using rotary evaporation at 20° C. The Paclitaxel-sodium oleate was reconstituted with WFI or 2.5% glycerol to provide 5 mg/mL, 10 mg/mL, or 20 mg/mL concentration of Paclitaxel.

The nature of series [2]: Stability of the solubilized compound (remains soluble) by reverse phase HPLC. The protocol:
as §1, §2, §3, §4, §5, §6, §7, §8, §9
Paclitaxel (7.2 mg) was added to 1 mL of 1 M sodium linoleate and mixed using a VORTEX®. […]
For example, Propofol (1% v/v or 10 mg/mL) was dissolved in 100 mM sodium oleate in 5% (w/v) dextrose in water for injection. The resulting solution containing 1% Propofol was lyophilized. […]

For the compound `CC1(C)CCC2=C(O1)c1ccccc1C(=O)C2=O` [β-Lapachone], in series [1] (OA-DMSO/EtOH mixture dispersed in equimolar sodium hydroxide solution), the “final concentration of the dispersed compound” value was 1.5 mg/mL and 2.0 mg/mL and 2.5 mg/mL. Moreover, the concentration dissolved was 50000 µg/mL in series [1] (in DMSO:OA 60%:40, 70%:30% or DMSO:EtOH:OA 30%:30%:40% v/v) and 25000 µg/mL in series [1] (in ethanol:oleic acid 70%:30%, 75%:25% or 80%:20% v/v).

One may read the solubility as the concentration that dissolves in the medium under given conditions. In the case of `CC(=O)O[C@H]1C(=O)[C@@]2(C)[C@H]([C@H](OC(=O)c3ccccc3)[C@]3(O)C[C@H](OC(=O)[C@H](O)[C@@H](NC(=O)c4ccccc4)c4ccccc4)C(C)=C1C3(C)C)[C@]1(OC(C)=O)CO[C@@H]1C[C@@H]2O` [Paclitaxel], the “fold greater than the solubility in water” value in series [1] was 630-850 fold. The concentration dissolved in series [1] (100 mM sodium oleate in 100% ethanol) came to 5000 µg/mL. Also, the solubility in series [1] (solubilization) was in the range of 6300 to 8500 µg/mL (≈ 7.38 to 9.95 mM). Also, the “time remained soluble, formulation stable upon dilution” value (“time remained soluble” below) in series [2] is on record as “up to 24 hours”.

On to `CC(C)c1cccc(C(C)C)c1O` [Propofol], for which the concentration dissolved in series [1] (100 mM sodium oleate in 5% (w/v) dextrose in water for injection (1% v/v)) was 10000 µg/mL. Besides, in series [2] (1% in 100 mM sodium oleate/D5W, lyophilized and reconstituted, RP-HPLC), the “stability of reconstituted lyophilized compound” value is “stable without degradation or impurities”.

For the compound `C[C@H]1O[C@@H](O[C@H]2[C@@H](O)C[C@H](O[C@H]3[C@@H](O)C[C@H](O[C@H]4CC[C@@]5(C)[C@H](CC[C@@H]6[C@@H]5C[C@@H](O)[C@]5(C)[C@@H](C7=CC(=O)OC7)CC[C@]65O)C4)O[C@@H]3C)O[C@@H]2C)C[C@H](O)[C@@H]1O` [Digoxin], the solubility in series [1] (concentration at which soluble and formulation clear, 0.25 M sodium oleate) turned out to be 1000 µg/mL; in series [1] (concentration at which soluble and formulation clear, oleic acid, then ethanolamine, dispersed in water for injection), 1000 µg/mL. Besides, the “time remained soluble” value in series [2] (0.25 M sodium oleate, dilution 1:10 in saline, RP-HPLC) is listed as “up to 24 hours”; in series [2] (oleic acid/ethanolamine formulation, dilution 1:4 in saline, RP-HPLC) it was “up to 24 hours”.

Take `CC(=O)Oc1ccccc1C(=O)O` [N-acetylsalicylic acid]: the “concentration at which soluble and formulation clear” value in series [1] was 25000 µg/mL. The same compound came in with a solubility in series [1] (concentration at which soluble and formulation clear) of 18000 µg/mL (≈ 99.9 mM). The “time remained soluble” value in series [2] is “up to 24 hours”.
